# Target: NET1ΔC (Gallus gallus, UniProt Q90922)
# Test: X-ray crystal structure (native crystals soaked in SOS)
# Assay type: binding
# Details: 10 mM SOS soak 5-7 days; crystals from PEG 8000, CHES pH 9.5; one SOS per monomer, two sites SOSab and SOScd in LE-2 subdomain
smiles,measurement,value
"O=S(=O)(O)OC[C@H]1O[C@@](COS(=O)(=O)O)(O[C@H]2O[C@H](COS(=O)(=O)O)[C@@H](OS(=O)(=O)O)[C@H](OS(=O)(=O)O)[C@H]2OS(=O)(=O)O)[C@@H](OS(=O)(=O)O)[C@@H]1OS(=O)(=O)O [SOS, sucrose-octasulfate]",X-ray crystal structure (native crystals soaked in SOS),in complex with one sucrose-octasulfate molecule bound per monomer

# Reference: paper PMC9984387, “The dynamic nature of netrin-1 and the structural basis for glycosaminoglycan fragment-induced filament formation” (Nature Communications, 2023)
